# Literature values in paper PMC5666773, “Human Immunodeficiency Virus Proteins Mimic Human T Cell Receptors Inducing Cross-Reactive Antibodies” (International Journal of Molecular Sciences, 2017).
# Target: naturally circulating anti-insulin
# Conditions: healthy human beings and cats; no clinical effect; read-out: naturally circulating anti-insulin binding
substance,measurement,value
insulin,Kd,~10 µM
